Data from ChEMBL document CHEMBL1149262, “Monoamine transporter binding, locomotor activity, and drug discrimination properties of 3-(4-substituted-phenyl)tropane-2-carboxylic acid methyl ester isomers” (J Med Chem, 2004).
The source made the active and inactive calls. The rule behind the calls is not given here.

Assays:
[1] = target: Sodium-dependent noradrenaline transporter (Homo sapiens, UniProt P23975); assay: Displacement of [3H]nisoxetine from NET
Mus musculus [2] = assay: Locomotor activity in CD1 mouse assessed as stimulation at 10 mg/kg, ip after 1 hr relative to control; format: functional; settings: route intraperitoneal
Mus musculus [3] = assay: Locomotor activity in CD1 mouse assessed as stimulation at 1 mg/kg, ip after 3 hrs relative to control; format: functional; settings: route intraperitoneal
Mus musculus [4] = assay: Locomotor activity in CD1 mouse assessed as stimulation at 1 mg/kg, ip after 1 hr relative to control; format: functional; settings: route intraperitoneal
Rattus norvegicus [5] = assay: Cocaine discrimination in ip dosed CD Albino rat; format: functional
Mus musculus [6] = assay: Locomotor activity in CD1 mouse assessed as stimulation at 0.3 mg/kg, ip after 2 hrs relative to control; format: functional; settings: route intraperitoneal
Mus musculus [7] = assay: Activity in CD1 mouse assessed as slight or intermittent hyperactivity at 1 mg/kg, ip after 4 hrs; format: functional, organism-based; set-up: dose 1 mg/kg
[8] = target: Sodium-dependent serotonin transporter (Homo sapiens, UniProt P31645)
Sodium-dependent serotonin transporter, sequence (P31645 whole entry): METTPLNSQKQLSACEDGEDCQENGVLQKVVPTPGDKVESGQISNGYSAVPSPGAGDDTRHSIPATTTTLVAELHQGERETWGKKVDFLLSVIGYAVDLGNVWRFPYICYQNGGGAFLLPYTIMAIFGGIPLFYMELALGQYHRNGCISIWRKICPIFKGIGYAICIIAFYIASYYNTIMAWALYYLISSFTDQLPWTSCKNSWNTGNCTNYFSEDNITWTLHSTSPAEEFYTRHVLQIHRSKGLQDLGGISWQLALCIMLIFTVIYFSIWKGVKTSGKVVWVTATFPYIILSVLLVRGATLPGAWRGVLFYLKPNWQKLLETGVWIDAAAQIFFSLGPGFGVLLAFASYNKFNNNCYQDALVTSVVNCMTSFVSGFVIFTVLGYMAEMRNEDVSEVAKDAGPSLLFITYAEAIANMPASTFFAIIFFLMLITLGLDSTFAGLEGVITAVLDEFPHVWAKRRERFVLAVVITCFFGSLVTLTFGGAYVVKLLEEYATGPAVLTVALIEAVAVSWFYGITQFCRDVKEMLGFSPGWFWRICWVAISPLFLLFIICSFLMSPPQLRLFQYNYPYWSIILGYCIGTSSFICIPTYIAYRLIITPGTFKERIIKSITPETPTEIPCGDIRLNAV
Description: Displacement of [3H]paroxetine from 5HTT

Mus musculus [9] = assay: Locomotor activity in CD1 mouse assessed as stimulation at 10 mg/kg, ip after 3 hrs relative to control; format: functional; settings: route intraperitoneal
Rattus norvegicus [10] = assay: Drug discrimination effect in CD Albino rat assessed as percent of rat choosing cocaine lever at 0.3 mg/kg, ip; format: functional; settings: route intraperitoneal
Rattus norvegicus [11] = assay: Drug discrimination effect in CD Albino rat assessed as percent of rat choosing cocaine lever at 1 mg/kg, ip; format: functional; settings: route intraperitoneal
Mus musculus [12] = assay: Locomotor activity in CD1 mouse assessed as stimulation at 3 mg/kg, ip after 3 hrs relative to control; format: functional; settings: route intraperitoneal
Mus musculus [13] = assay: Locomotor activity in CD1 mouse assessed as stimulation at 3 mg/kg, ip after 1 hr relative to control; format: functional; settings: route intraperitoneal
Mus musculus [14] = assay: Locomotor activity in CD1 mouse assessed as stimulation at 3 mg/kg, ip after 4 hrs relative to control; format: functional; settings: route intraperitoneal
Mus musculus [15] = assay: Activity in CD1 mouse assessed as stereotypy at 10 mg/kg, ip after 4 hrs; format: functional, organism-based; set-up: dose 10 mg/kg
Mus musculus [16] = assay: Locomotor activity in CD1 mouse assessed as stimulation at 10 mg/kg, ip after 2 hrs relative to control; format: functional; settings: route intraperitoneal
Mus musculus [17] = assay: Locomotor activity in CD1 mouse assessed as stimulation at 0.3 mg/kg, ip after 4 hrs relative to control; format: functional; settings: route intraperitoneal
Rattus norvegicus [18] = assay: Drug discrimination effect in CD Albino rat assessed as percent of rat choosing cocaine lever at 0.17 mg/kg, ip; format: functional; settings: route intraperitoneal
Mus musculus [19] = assay: Activity in CD1 mouse assessed as straub tail at 100 mg/kg, ip after 4 hrs; format: functional, organism-based; set-up: dose 100 mg/kg
Mus musculus [20] = assay: Activity in CD1 mouse assessed as convulsions at 100 mg/kg, ip after 4 hrs; format: functional, organism-based; set-up: dose 100 mg/kg
Mus musculus [21] = assay: Activity in CD1 mouse assessed as hyperactivity at 10 mg/kg, ip after 4 hrs; format: functional, organism-based; set-up: dose 10 mg/kg
Mus musculus [22] = assay: Locomotor activity in CD1 mouse assessed as stimulation at 0.3 mg/kg, ip after 1 hr relative to control; format: functional; settings: route intraperitoneal
Rattus norvegicus [23] = assay: Drug discrimination effect in CD Albino rat assessed as percent of rat choosing cocaine lever at 0.56 mg/kg, ip; format: functional; settings: route intraperitoneal
Mus musculus [24] = assay: Locomotor activity in CD1 mouse assessed as stimulation at 1 mg/kg, ip after 2 hrs relative to control; format: functional; settings: route intraperitoneal
Mus musculus [25] = assay: Locomotor activity in ip dosed CD1 mouse in peak hour; format: functional
Mus musculus [26] = assay: Locomotor activity in CD1 mouse assessed as stimulation at 10 mg/kg, ip after 4 hrs relative to control; format: functional; settings: route intraperitoneal
Mus musculus [27] = assay: Activity in CD1 mouse assessed as stereotypy at 100 mg/kg, ip after 4 hrs; format: functional, organism-based; set-up: dose 100 mg/kg
Mus musculus [28] = assay: Locomotor activity in CD1 mouse assessed as stimulation at 0.3 mg/kg, ip after 3 hrs relative to control; format: functional; settings: route intraperitoneal
Mus musculus [29] = assay: Activity in CD1 mouse assessed as slight or intermittent stereotypy at 1 mg/kg, ip after 4 hrs; format: functional, organism-based; set-up: dose 1 mg/kg
Mus musculus [30] = assay: Locomotor activity in CD1 mouse assessed as stimulation at 1 mg/kg, ip after 4 hrs relative to control; format: functional; settings: route intraperitoneal
Mus musculus [31] = assay: Locomotor activity in CD1 mouse assessed as stimulation at 3 mg/kg, ip after 2 hrs relative to control; format: functional; settings: route intraperitoneal
Mus musculus [32] = assay: Activity in CD1 mouse assessed as flattened body posture at 100 mg/kg, ip after 4 hrs; format: functional, organism-based; set-up: dose 100 mg/kg
Mus musculus [33] = assay: Locomotor activity in CD1 mouse assessed as stimulation at 30 mg/kg, ip after 2 hrs relative to control; format: functional; settings: route intraperitoneal
Rattus norvegicus [34] = assay: Drug discrimination effect in CD Albino rat assessed as percent of rat choosing cocaine lever at 3 mg/kg, ip; format: functional; settings: route intraperitoneal
Mus musculus [35] = assay: Activity in CD1 mouse assessed as hypoactivity at 100 mg/kg, ip after 4 hrs; format: functional, organism-based; set-up: dose 100 mg/kg
Mus musculus [36] = assay: Locomotor activity in CD1 mouse assessed as stimulation at 30 mg/kg, ip after 3 hrs relative to control; format: functional; settings: route intraperitoneal
Rattus norvegicus [37] = assay: Drug discrimination effect in CD Albino rat assessed as percent of rat choosing cocaine lever at 10 mg/kg, ip; format: functional; settings: route intraperitoneal
Mus musculus [38] = assay: Activity in CD1 mouse assessed as death at 100 mg/kg, ip after 4 hrs; format: functional, organism-based; set-up: dose 100 mg/kg
Mus musculus [39] = assay: Locomotor activity in CD1 mouse assessed as stimulation at 30 mg/kg, ip after 1 hr relative to control; format: functional; settings: route intraperitoneal
Mus musculus [40] = assay: Locomotor activity in CD1 mouse assessed as stimulation at 30 mg/kg, ip after 4 hrs relative to control; format: functional; settings: route intraperitoneal
Rattus norvegicus [41] = assay: Drug discrimination effect in CD Albino rat assessed as percent of rat choosing cocaine lever at 5.6 mg/kg, ip; format: functional; settings: route intraperitoneal
Mus musculus [42] = assay: Activity in CD1 mouse assessed as circling at 100 mg/kg, ip after 4 hrs; format: functional, organism-based; set-up: dose 100 mg/kg
Mus musculus [43] = assay: Activity in CD1 mouse assessed as tremor at 100 mg/kg, ip after 4 hrs; format: functional, organism-based; set-up: dose 100 mg/kg
[44] = target: Sodium-dependent dopamine transporter (Homo sapiens, UniProt Q01959); assay: Displacement of [3H]WIN-35428 from DAT
Sodium-dependent dopamine transporter, sequence (Q01959 whole entry): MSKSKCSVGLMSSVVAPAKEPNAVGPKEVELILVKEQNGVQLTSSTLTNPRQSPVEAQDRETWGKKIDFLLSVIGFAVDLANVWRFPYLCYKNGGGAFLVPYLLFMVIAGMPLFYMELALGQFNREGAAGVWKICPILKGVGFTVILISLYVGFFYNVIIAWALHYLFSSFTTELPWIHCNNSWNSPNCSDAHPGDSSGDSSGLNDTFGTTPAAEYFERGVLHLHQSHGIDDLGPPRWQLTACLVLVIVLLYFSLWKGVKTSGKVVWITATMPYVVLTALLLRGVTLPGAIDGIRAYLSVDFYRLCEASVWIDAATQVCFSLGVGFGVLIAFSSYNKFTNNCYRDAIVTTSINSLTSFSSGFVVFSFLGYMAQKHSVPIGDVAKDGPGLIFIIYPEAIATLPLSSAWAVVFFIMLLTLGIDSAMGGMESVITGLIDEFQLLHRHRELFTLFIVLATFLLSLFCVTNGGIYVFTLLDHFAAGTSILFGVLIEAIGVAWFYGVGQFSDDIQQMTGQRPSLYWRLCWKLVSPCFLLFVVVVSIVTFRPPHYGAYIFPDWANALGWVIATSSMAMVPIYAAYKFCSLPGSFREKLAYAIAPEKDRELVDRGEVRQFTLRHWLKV

Mus musculus [45] = assay: Activity in CD1 mouse assessed as stimulation at 10 mg/kg, ip after 4 hrs; format: functional, organism-based; set-up: dose 10 mg/kg
Mus musculus [46] = assay: Activity in CD1 mouse assessed as ataxia at 100 mg/kg, ip after 4 hrs; format: functional, organism-based; set-up: dose 100 mg/kg

Sodium-dependent noradrenaline transporter, sequence (P23975 whole entry): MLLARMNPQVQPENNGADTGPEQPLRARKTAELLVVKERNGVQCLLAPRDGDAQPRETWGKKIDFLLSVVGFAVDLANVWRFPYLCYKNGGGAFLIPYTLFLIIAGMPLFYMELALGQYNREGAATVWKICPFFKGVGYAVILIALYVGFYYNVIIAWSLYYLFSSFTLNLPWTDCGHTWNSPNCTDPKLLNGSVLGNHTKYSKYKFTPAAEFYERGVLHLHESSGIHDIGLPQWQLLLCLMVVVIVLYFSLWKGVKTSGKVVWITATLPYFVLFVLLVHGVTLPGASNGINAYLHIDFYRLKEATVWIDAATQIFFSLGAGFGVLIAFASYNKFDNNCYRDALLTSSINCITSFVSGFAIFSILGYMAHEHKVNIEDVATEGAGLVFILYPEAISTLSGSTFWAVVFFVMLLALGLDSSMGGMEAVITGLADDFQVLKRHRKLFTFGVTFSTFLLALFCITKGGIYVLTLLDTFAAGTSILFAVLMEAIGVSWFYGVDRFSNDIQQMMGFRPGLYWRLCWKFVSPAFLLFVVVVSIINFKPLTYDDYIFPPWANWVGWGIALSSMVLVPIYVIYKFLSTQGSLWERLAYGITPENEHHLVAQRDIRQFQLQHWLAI

Compound | Activity (Mus musculus [2]) | Activity (Mus musculus [3]) | Activity (Mus musculus [4]) | ED50 (Rattus norvegicus [5]) | Activity (Mus musculus [9]) | Activity (Rattus norvegicus [11]) | Activity (Mus musculus [12]) | Activity (Mus musculus [13]) | Activity (Mus musculus [14]) | Activity (Mus musculus [16]) | Activity (Mus musculus [19]) | Activity (Mus musculus [20]) | Activity (Mus musculus [24]) | ED50 (Mus musculus [25]) | Activity (Mus musculus [26]) | Activity (Mus musculus [27]) | Activity (Mus musculus [30]) | Activity (Mus musculus [31]) | Activity (Mus musculus [33]) | Activity (Rattus norvegicus [34]) | also measured
COC(=O)[C@H]1[C@@H](c2ccc(F)cc2)C[C@H]2CC[C@H]1N2C | 330% | 28% | 333% | 0.29 mg/kg | 594% | 100% | 199% | 633% | 140% | 220% | Active | Active | 232% | 0.7 mg/kg | 739% | Active | -29% | 558% | – | – | Ki [1]: 503 nM; Activity (Mus musculus [6]): -33%; Activity (Mus musculus [7]): Active; IC50 [8]: 692 nM; Ki [8]: 63 nM; Activity (Rattus norvegicus [10]): 57%; Activity (Mus musculus [15]): Active; Activity (Mus musculus [17]): -47%; Activity (Rattus norvegicus [18]): 0%; Activity (Mus musculus [21]): Active; Activity (Mus musculus [22]): 5%; Activity (Rattus norvegicus [23]): 86%; Activity (Mus musculus [28]): -66%; Activity (Mus musculus [29]): Active
COC(=O)[C@H]1[C@H]2CCC(C[C@H]1c1ccc(Cl)cc1)N2C | 51% | 154% | 6% | – | 114% | 13% | 107% | 16% | 69% | 169% | – | Active | 182% | – | 41% | – | 45% | 128% | -27% | 0% | Activity (Mus musculus [32]): Active; Activity (Mus musculus [35]): Active; Activity (Mus musculus [36]): 125%; Activity (Rattus norvegicus [37]): 13%; Activity (Mus musculus [38]): Active; Activity (Mus musculus [39]): -46%; Activity (Mus musculus [40]): -27%; Activity (Rattus norvegicus [41]): 13%
COC(=O)[C@H]1C2CCC(C[C@@H]1c1ccc(Cl)cc1)N2C (stereo partly specified) | 248% | 83% | 15% | 4.07 mg/kg | 1275% | – | 92% | 68% | 15% | 1003% | Active | Active | 50% | 4.3 mg/kg | 667% | Active | 62% | 188% | 493% | 13% | Activity (Mus musculus [42]): Active; Activity (Mus musculus [43]): Active; IC50 [44]: 25 nM; Activity (Mus musculus [45]): Active; Activity (Mus musculus [36]): 911%; Activity (Rattus norvegicus [37]): 67%; Activity (Mus musculus [46]): Active; Activity (Mus musculus [38]): Active; Activity (Mus musculus [39]): 154%; Activity (Mus musculus [40]): 794%; Activity (Rattus norvegicus [41]): 88%
